# Test results from US8247211B2, “Glycopeptide antibiotics” (American Cyanamid Company, priority 2001, dated 2012).
# Columns and labels:
# Experiment in all cases: In vitro antibacterial evaluation: minimum inhibitory concentration (MIC), broth dilution method
# Assay type in all cases: cell-based
# Conditions in all cases: 18 hours at 35° C.
# [1] = tested on: Enterococcus sp.
# Method in brief: (§1)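 MIC read as lowest drug level preventing visible growth. Organisms at 5×10^5 CFU/mL were exposed to a 64-0.06 μg/mL dilution series in Muller-Hinton II […] following NCCLS broth dilution standard M7-A2.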
# [2] = tested on: Escherichia coli
# Method in brief: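 Broth dilution per NCCLS M7-A2 in Muller-Hinton II […], inoculum 5×10^5 CFU/mL, antibiotic tested over 64-0.06 μg/mL. MIC is taken as the lowest concentration that inhibits growth. Panel includes recent clinical isolates resistant to methicillin, penicillin and/or vancomycin.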
# [3] = tested on: Staphylococcus sp.
# Method in brief: as §1
# [4] = tested on: Streptococcus sp.
# Method in brief: as §1
# [5] = broth dilution, inoculum 5×10^5 CFU/mL
smiles,measurement,setting,value
"CC(c1ccccc1)C1NC(=O)CNC(=O)C(CO)NC(=O)C(C(O)C2CNC(=N)N2C2OC(CO)C(O)C(O)C2O)NC(=O)C(C(O)C2CNC(=N)N2)NC(=O)C(Cc2ccc(OC3OC(CO)C(OC4OC(CO)C(OCC=C(c5ccccc5)c5ccccc5)C(O)C4O)C(O)C3O)cc2)NC1=O (stereo not drawn) [Example 241a, Cyclo[glycyl-β-methylphenylalanyl-O-[4-O-[4-O-(3,3-diphenylprop-2-en-1-yl)hexopyranosyl]-hexopyranosyl]tyrosyl-3-(2-iminoimidazolidin-4-yl)seryl-3-[3-hexopyranosyl-2-iminoimidazolidin-4-yl)serylseryl]]",MIC Enterococcus avium (GC 4558),[1]; Enterococcus avium (GC 4558),2 µg/mL
same,MIC Enterococcus faecalis (ATCC 29212),[1]; Enterococcus faecalis (ATCC 29212),4 µg/mL
same,MIC Enterococcus faecalis (GC 2242),[1]; Enterococcus faecalis (GC 2242),4 µg/mL
same,MIC Enterococcus faecalis (GC 2691),[1]; Enterococcus faecalis (GC 2691),2 µg/mL
same,MIC Enterococcus faecalis (GC 3059),[1]; Enterococcus faecalis (GC 3059),2 µg/mL
same,MIC Enterococcus faecalis (GC 4552),[1]; Enterococcus faecalis (GC 4552),4 µg/mL
same,MIC Enterococcus faecalis (GC 4553),[1]; Enterococcus faecalis (GC 4553),4 µg/mL
same,MIC Enterococcus faecalis (GC 4554),[1]; Enterococcus faecalis (GC 4554),4 µg/mL
same,MIC Enterococcus faecalis (GC 6189),[1]; Enterococcus faecalis (GC 6189),2 µg/mL
same,MIC Enterococcus faecium (GC 2243),[1]; Enterococcus faecium (GC 2243),2 µg/mL
same,MIC Enterococcus faecium (GC 4556),[1]; Enterococcus faecium (GC 4556),2 µg/mL
same,MIC Enterococcus faecium (GC 4557),[1]; Enterococcus faecium (GC 4557),2 µg/mL
same,MIC Enterococcus faecalis (GC 2242),[1]; [5],4 µg/mL
same,MIC Enterococcus faecalis (GC 2691),[1]; [5],2 µg/mL
same,MIC Enterococcus faecalis (GC 3059),[1]; [5],2 µg/mL
same,MIC Escherichia coli (ATCC 25922),[2]; Escherichia coli (ATCC 25922),>64 µg/mL
same,MIC Escherichia coli (GC 4559),[2]; Escherichia coli (GC 4559),>64 µg/mL
same,MIC Escherichia coli (GC 4560),[2]; Escherichia coli (GC 4560),2 µg/mL
same,MIC Coagulase Negative Staphylococcus (GC 4547),[3]; Coagulase Negative Staphylococcus (GC 4547),4 µg/mL
same,MIC Coagulase Negative Staphylococcus (GC 4548),[3]; Coagulase Negative Staphylococcus (GC 4548),2 µg/mL
same,MIC Coagulase Negative Staphylococcus (GC 4549),[3]; Coagulase Negative Staphylococcus (GC 4549),1 µg/mL
same,MIC Coagulase Negative Staphylococcus (GC 4551),[3]; Coagulase Negative Staphylococcus (GC 4551),4 µg/mL
same,MIC Coagulase Negative Staphylococcus (GC 6257),[3]; Coagulase Negative Staphylococcus (GC 6257),1 µg/mL
same,MIC Staphylococcus aureus (ATCC 29213),[3]; Staphylococcus aureus (ATCC 29213),2 µg/mL
same,MIC Staphylococcus aureus (GC 1131),[3]; Staphylococcus aureus (GC 1131),2 µg/mL
same,MIC Staphylococcus aureus (GC 3051),[3]; Staphylococcus aureus (GC 3051),2 µg/mL
same,MIC Staphylococcus aureus (GC 3053),[3]; Staphylococcus aureus (GC 3053),2 µg/mL
same,MIC Staphylococcus aureus (GC 4541),[3]; Staphylococcus aureus (GC 4541),2 µg/mL
same,MIC Staphylococcus aureus (GC 4542),[3]; Staphylococcus aureus (GC 4542),2 µg/mL
same,MIC Staphylococcus aureus (GC 4544),[3]; Staphylococcus aureus (GC 4544),4 µg/mL
same,MIC Staphylococcus aureus (GC 4545),[3]; Staphylococcus aureus (GC 4545),2 µg/mL
same,MIC Staphylococcus aureus-SMITH (GC 4543),[3]; Staphylococcus aureus-SMITH (GC 4543),2 µg/mL
same,MIC Staphylococcus haemolyticus (GC 4546),[3]; Staphylococcus haemolyticus (GC 4546),2 µg/mL
same,MIC Streptococcus agalactiae (GC 4564),[4]; Streptococcus agalactiae (GC 4564),<0.06 µg/mL
same,MIC Streptococcus pneumoniae (ATCC 6301),[4]; Streptococcus pneumoniae (ATCC 6301),<0.06 µg/mL
same,MIC Streptococcus pneumoniae (GC 1894),[4]; Streptococcus pneumoniae (GC 1894),<0.06 µg/mL
same,MIC Streptococcus pneumoniae (GC 4565),[4]; Streptococcus pneumoniae (GC 4565),<0.06 µg/mL
same,MIC Streptococcus pyogenes (GC 4563),[4]; Streptococcus pyogenes (GC 4563),<0.06 µg/mL
same,MIC Streptococcus agalactiae (GC 4564),[4]; [5],<0.06 µg/mL
same,MIC Streptococcus pneumoniae (ATCC 6301),[4]; [5],<0.06 µg/mL
same,MIC Streptococcus pneumoniae (GC 1894),[4]; [5],<0.06 µg/mL
same,MIC Streptococcus pneumoniae (GC 4565),[4]; [5],<0.06 µg/mL
same,MIC Streptococcus pyogenes (GC 4563),[4]; [5],<0.06 µg/mL
